Data published in patent US5041567A, “Antibacterial monic acid derivatives” (Beecham Group plc, priority 1982, dated 1991).
In brackets after ≈: the same amount, converted by molar mass. Where two headings read alike, the source gives them in different places.

How the values were obtained:
Strep. uberis SPU1 = assay: MIC against veterinary bacteria in vitro
Method: (§1) The activity of the compounds of the Examples against various veterinarily important bacteria, was assayed in vitro using two-fold serial dilutions in Diagnostic Sensitivity Test Agar inoculated with 10^4 organisms.

Strep. faecalis I = assay: MIC against human bacteria in vitro; type: cell-based; details: Strep. faecalis I, 5% chocolated horse blood agar, 18 hours
M. suipneumoniae NB12 = assay: MIC against mycoplasma in vitro; type: cell-based; details: Mesomycoplasma hyopneumoniae, 144 h; M. suipneumoniae NB12; Friis broth, 0.9% agarose, 6 days, 37° C.; read-out: MIC
[1] = test system: M. hyosynoviae ATCC 25591; assay: MIC against mycoplasma in vitro; type: cell-based; details: M. hyosynoviae ATCC 25591, 6 days, 37° C.
[2] = test system: Strep. suis (group D) SPS11; assay: MIC against veterinary bacteria in vitro
Method: as §1

[3] = test system: Staph. aureus B4 (pen. resistant); assay: MIC against veterinary bacteria in vitro
Method: as §1

M. dispar NCTC 10125 = assay: MIC against mycoplasma in vitro; type: cell-based
[4] = test system: Pasteurella multocida 1633; assay: MIC against human bacteria in vitro; type: cell-based; details: Pasteurella multocida 1633, 5% chocolated horse blood agar, 18 hours
Strep. agalactiae 2788-B = assay: MIC against human bacteria in vitro; type: cell-based; details: Strep. agalactiae 2788-B, 5% chocolated horse blood agar, 18 hours
K. aerogenes A = assay: MIC against human bacteria in vitro; type: cell-based; details: K. aerogenes A, 5% chocolated horse blood agar, 18 hours
Strep. agalactiae SPA1 = assay: MIC against veterinary bacteria in vitro
Method: as §1

Staph. aureus Oxford = assay: MIC against human bacteria in vitro; type: cell-based; details: Staph. aureus Oxford, 5% chocolated horse blood agar, 18 hours
P. mirabilis 889 = assay: MIC against human bacteria in vitro; type: cell-based; details: P. mirabilis 889, 5% chocolated horse blood agar, 18 hours
[5] = test system: Corynebacterium xerosis 9755; assay: MIC against human bacteria in vitro; type: cell-based; details: Corynebacterium xerosis 9755, 5% chocolated horse blood agar, 18 hours
M. suipneumoniae Str. 11 = assay: MIC against mycoplasma in vitro; type: cell-based; details: M. suipneumoniae Str. 11, 6 days, 37° C.
M. suipneumoniae TAM 6N = assay: MIC against mycoplasma in vitro; type: cell-based
Bacillus subtilis 6633 = assay: MIC against human bacteria in vitro; type: cell-based; details: Bacillus subtilis 6633, 5% chocolated horse blood agar, 18 hours
[6] = test system: Corynebacterium pyogenes CY1; assay: MIC against veterinary bacteria in vitro
Method: as §1

Strep. spp. 64/848-C = assay: MIC against human bacteria in vitro; type: cell-based; details: Strep. spp. 64/848-C, 5% chocolated horse blood agar, 18 hours
M. suipneumoniae MS 16 = assay: MIC against mycoplasma in vitro; type: cell-based; details: M. suipneumoniae MS 16, 6 days, 37° C.
Sarcina lutea 8340 = assay: MIC against human bacteria in vitro; type: cell-based; details: Sarcina lutea 8340, 5% chocolated horse blood agar, 18 hours
M. hyorhinis ATCC 25021 = assay: MIC against mycoplasma in vitro; type: cell-based; details: M. hyorhinis ATCC 25021, 6 days, 37° C.
Past. multocida PA1 = assay: MIC against veterinary bacteria in vitro
Method: as §1

S. dublin S7 = assay: MIC against veterinary bacteria in vitro
Method: as §1

[7] = test system: Strep. pyogenes R80/421-A; assay: MIC against human bacteria in vitro; type: cell-based
M. suipneumoniae JF 435 = assay: MIC against mycoplasma in vitro; type: cell-based
[8] = test system: M. suipneumoniae J2206/183^b; assay: MIC against mycoplasma in vitro; type: cell-based
[9] = test system: Haemophilus influenzae Wy21; assay: MIC against human bacteria in vitro; type: cell-based
[10] = test system: Ps. aeruginosa NCTC 10662; assay: MIC against human bacteria in vitro; type: cell-based; details: Ps. aeruginosa NCTC 10662, 5% chocolated horse blood agar, 18 hours
[11] = test system: M. suipneumoniae ATCC 25095; assay: MIC against mycoplasma in vitro; type: cell-based; details: M. suipneumoniae ATCC 25095, 6 days, 37° C.
[12] = test system: M. bovigenitalium ATCC 14173; assay: MIC against mycoplasma in vitro; type: cell-based
E. coli ESS = assay: MIC against human bacteria in vitro; type: cell-based; details: E. coli ESS, 5% chocolated horse blood agar, 18 hours
Staph. aureus W2827 = assay: MIC against human bacteria in vitro; type: cell-based; details: Staph. aureus W2827, 5% chocolated horse blood agar, 18 hours
Staph. aureus Russell = assay: MIC against human bacteria in vitro; type: cell-based; details: Staph. aureus Russell, 5% chocolated horse blood agar, 18 hours
[13] = Staphylococcus aureus, read-out: MIC

Q: Which MIC (Strep. uberis SPU1; Streptococcus uberis, SPU1, 18 h) does the source give for `C/C(=C\c1ncc(-c2ccsc2)o1)C[C@@H]1OC[C@H](C[C@@H]2O[C@H]2[C@@H](C)[C@H](C)O)[C@@H](O)[C@H]1O` [Example 20, 5-(3-Thienyl)-2-(1-normon-2-yl) oxazole A] here?
A: Its MIC is 0.156 µg/mL (≈ 0.347 µM).

Q: And the MIC (Strep. faecalis I; Enterococcus faecalis, read-out: MIC)?
A: Its MIC is > 128 µg/mL.

Q: What about the MIC (M. suipneumoniae NB12) of the same compound?
A: The MIC was 0.5 µg/mL (≈ 1.11 µM).

Q: And the MIC ([1]; 144 h, read-out: MIC)?
A: The MIC was 0.5 µg/mL (≈ 1.11 µM).

Q: And the MIC ([2]; Streptococcus suis, 18 h)?
A: Its MIC is 40 µg/mL (≈ 89 µM).

Q: And the MIC ([3]; Staphylococcus aureus, 18 h)?
A: Its MIC is 0.63 µg/mL (≈ 1.4 µM).

Q: What about the MIC (M. dispar NCTC 10125; 144 h) of the same compound?
A: Its MIC is 0.25 µg/mL (≈ 0.556 µM).

Q: And the MIC ([4]; read-out: MIC)?
A: Its MIC is 4 µg/mL (≈ 8.9 µM).

Q: And the MIC (Strep. agalactiae 2788-B; Streptococcus agalactiae, read-out: MIC)?
A: The MIC was 2 µg/mL (≈ 4.45 µM).

Q: What about the MIC (K. aerogenes A; Klebsiella aerogenes, read-out: MIC) of the same compound?
A: Its MIC is > 128 µg/mL.

Q: What about the MIC (Strep. agalactiae SPA1; Streptococcus agalactiae, SPA1, 18 h) of the same compound?
A: Its MIC is 1.25 µg/mL (≈ 2.78 µM).

Q: And the MIC (Staph. aureus Oxford; [13])?
A: Its MIC is 4 µg/mL (≈ 8.9 µM).

Q: What about the MIC (P. mirabilis 889; Proteus mirabilis, read-out: MIC) of the same compound?
A: The MIC was > 128 µg/mL.

Q: And the MIC ([5]; read-out: MIC)?
A: The MIC was > 128 µg/mL.

Q: And the MIC (M. suipneumoniae Str. 11; Mesomycoplasma hyopneumoniae, 144 h, read-out: MIC)?
A: The MIC was 0.5 µg/mL (≈ 1.11 µM).

Q: What about the MIC (M. suipneumoniae TAM 6N; Mesomycoplasma hyopneumoniae, TAM6N, 144 h) of the same compound?
A: Its MIC is 1 µg/mL (≈ 2.22 µM).

Q: And the MIC (Bacillus subtilis 6633; read-out: MIC)?
A: The MIC was 0.5 µg/mL (≈ 1.11 µM).

Q: And the MIC ([6]; CY1, 18 h)?
A: The MIC was > 80 µg/mL.

Q: And the MIC (Strep. spp. 64/848-C; read-out: MIC)?
A: The MIC was 2 µg/mL (≈ 4.45 µM).

Q: And the MIC (M. suipneumoniae MS 16; Mesomycoplasma hyopneumoniae, MS16, 144 h, read-out: MIC)?
A: Its MIC is 0.5 µg/mL (≈ 1.11 µM).

Q: And the MIC (Sarcina lutea 8340; Micrococcus luteus, read-out: MIC)?
A: Its MIC is > 128 µg/mL.

Q: And the MIC (M. hyorhinis ATCC 25021; Mesomycoplasma hyorhinis, ATCC25021, 144 h, read-out: MIC)?
A: Its MIC is 0.5 µg/mL (≈ 1.11 µM).

Q: And the MIC (Past. multocida PA1; Pasteurella multocida, PA1, 18 h)?
A: Its MIC is 2.5 µg/mL (≈ 5.56 µM).

Q: What about the MIC (S. dublin S7; Salmonella enterica, S7, 18 h) of the same compound?
A: The MIC was > 80 µg/mL.

Q: And the MIC ([7]; Streptococcus pyogenes, R80/421A, 18 h)?
A: Its MIC is 0.25 µg/mL (≈ 0.556 µM).

Q: And the MIC (M. suipneumoniae JF 435; Mesomycoplasma hyopneumoniae, JF435, 144 h)?
A: Its MIC is 1 µg/mL (≈ 2.22 µM).

Q: What about the MIC ([8]; Mesomycoplasma hyopneumoniae, 144 h) of the same compound?
A: Its MIC is 1 µg/mL (≈ 2.22 µM).

Q: And the MIC ([9]; Haemophilus influenzae, WY21, 18 h)?
A: Its MIC is 0.5 µg/mL (≈ 1.11 µM).

Q: And the MIC ([10]; Pseudomonas aeruginosa, NCTC10662, read-out: MIC)?
A: Its MIC is > 128 µg/mL.

Q: And the MIC ([11]; Mesomycoplasma hyopneumoniae, ATCC25095, 144 h, read-out: MIC)?
A: The MIC was 0.5 µg/mL (≈ 1.11 µM).

Q: And the MIC ([12]; 144 h)?
A: Its MIC is 0.05 µg/mL (≈ 0.111 µM).

Q: And the MIC (E. coli ESS; Escherichia coli, read-out: MIC)?
A: The MIC was 4 µg/mL (≈ 8.9 µM).

Q: What about the MIC (Staph. aureus W2827; [13]) of the same compound?
A: The MIC was 4 µg/mL (≈ 8.9 µM).

Q: What about the MIC (Staph. aureus Russell; [13]) of the same compound?
A: The MIC was 4 µg/mL (≈ 8.9 µM).

Q: With `CC(=Cc1cnc(-c2ccccc2)o1)CC1OCC(CC2OC2C(C)C(C)O)C(O)C1O` (stereo not shown) [Example 35, 5-(1-Normon-2-yl)-2-phenyloxazole A] as the compound, how does the MIC (Strep. uberis SPU1; Strep. uberis SPU1, Diagnostic Sensitivity Test Agar, 18 hours) read?
A: Its MIC is 80 µg/mL (≈ 180 µM).

Q: And the MIC (Strep. faecalis I)?
A: The MIC was > 128 µg/mL.

Q: What about the MIC [1] of the same compound?
A: Its MIC is > 10 µg/mL.

Q: What about the MIC ([2]; Strep. suis (group D) SPS11, Diagnostic Sensitivity Test Agar, 18 hours) of the same compound?
A: Its MIC is > 80 µg/mL.

Q: And the MIC ([3]; Staph. aureus B4 (pen. resistant), Diagnostic Sensitivity Test Agar, 18 hours)?
A: The MIC was > 80 µg/mL.

Q: And the MIC (M. dispar NCTC 10125; M. dispar NCTC 10125, 6 days, 37° C.)?
A: Its MIC is > 10 µg/mL.

Q: What about the MIC [4] of the same compound?
A: The MIC was > 128 µg/mL.

Q: What about the MIC (Strep. agalactiae 2788-B) of the same compound?
A: Its MIC is > 128 µg/mL.

Q: What about the MIC (K. aerogenes A) of the same compound?
A: The MIC was > 128 µg/mL.

Q: And the MIC (Strep. agalactiae SPA1; Strep. agalactiae SPA1, Diagnostic Sensitivity Test Agar, 18 hours)?
A: The MIC was > 80 µg/mL.

Q: What about the MIC (Staph. aureus Oxford) of the same compound?
A: Its MIC is > 128 µg/mL.

Q: What about the MIC (P. mirabilis 889) of the same compound?
A: Its MIC is > 128 µg/mL.

Q: What about the MIC [5] of the same compound?
A: Its MIC is > 128 µg/mL.

Q: What about the MIC (M. suipneumoniae Str. 11) of the same compound?
A: The MIC was > 10 µg/mL.

Q: What about the MIC (M. suipneumoniae TAM 6N; M. suipneumoniae TAM 6N, 6 days, 37° C.) of the same compound?
A: Its MIC is > 10 µg/mL.

Q: What about the MIC (Bacillus subtilis 6633) of the same compound?
A: Its MIC is > 128 µg/mL.

Q: And the MIC ([6]; Corynebacterium pyogenes CY1, Diagnostic Sensitivity Test Agar, 18 hours)?
A: The MIC was > 80 µg/mL.

Q: What about the MIC (Strep. spp. 64/848-C) of the same compound?
A: The MIC was > 128 µg/mL.

Q: What about the MIC (M. suipneumoniae MS 16) of the same compound?
A: The MIC was > 10 µg/mL.

Q: What about the MIC (Sarcina lutea 8340) of the same compound?
A: Its MIC is > 128 µg/mL.

Q: What about the MIC (M. hyorhinis ATCC 25021) of the same compound?
A: Its MIC is > 10 µg/mL.

Q: And the MIC (Past. multocida PA1; Past. multocida PA1, Diagnostic Sensitivity Test Agar, 18 hours)?
A: Its MIC is 80 µg/mL (≈ 180 µM).

Q: And the MIC (S. dublin S7; S. dublin S7, Diagnostic Sensitivity Test Agar, 18 hours)?
A: Its MIC is > 80 µg/mL.

Q: What about the MIC ([7]; Strep. pyogenes R80/421-A, 5% chocolated horse blood agar, 18 hours) of the same compound?
A: Its MIC is > 128 µg/mL.

Q: And the MIC (M. suipneumoniae JF 435; M. suipneumoniae JF 435, 6 days, 37° C.)?
A: The MIC was > 10 µg/mL.

Q: And the MIC ([8]; M. suipneumoniae J2206/183^b, 6 days, 37° C.)?
A: Its MIC is > 10 µg/mL.

Q: And the MIC ([9]; Haemophilus influenzae Wy21, 5% chocolated horse blood agar, 18 hours)?
A: The MIC was 128 µg/mL (≈ 289 µM).

Q: And the MIC [10]?
A: The MIC was > 128 µg/mL.

Q: What about the MIC [11] of the same compound?
A: The MIC was > 10 µg/mL.

Q: And the MIC ([12]; M. bovigenitalium ATCC 14173, 6 days, 37° C.)?
A: Its MIC is 5.0 µg/mL (≈ 11.3 µM).

Q: What about the MIC (E. coli ESS) of the same compound?
A: The MIC was 128 µg/mL (≈ 289 µM).

Q: And the MIC (Staph. aureus W2827)?
A: The MIC was > 128 µg/mL.

Q: What about the MIC (Staph. aureus Russell) of the same compound?
A: Its MIC is > 128 µg/mL.
